Tests used:
Details in all cases: averaged IC50
[1] = target: His-tagged recombinant human AXL cytoplasmic domain (Homo sapiens (Human), UniProt P30530); assay: AXL Enzyme Assay (LanthaScreen Eu Kinase Binding, TR-FRET)
Summary of the method: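 Compound displacement measured by TR-FRET after 60 min at 22 °C, using Eu-based LanthaScreen binding technology. Ratiometric emission converted to percent of control, fitted to a 4-parameter logistic curve, with IC50 at 50 POC.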

[2] = target: His-tagged recombinant human MER cytoplasmic domain (Homo sapiens (Human), UniProt Q12866); assay: MER Enzyme Assay (LanthaScreen Eu Kinase Binding, TR-FRET)
Summary of the method: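 Percent of control, derived from ratiometric TR-FRET emission, was fitted to a 4-parameter logistic curve and IC50 taken at 50 POC. Binding was read after 60 min at 22 °C using Eu-based LanthaScreen technology and recombinant His-tagged MER cytoplasmic domain.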

[3] = target: GST-tagged recombinant human TYRO3 kinase domain (Homo sapiens (Human), UniProt Q06418); assay: TYRO3 Enzyme Assay (LanthaScreen Eu Kinase Binding, TR-FRET)
Summary of the method: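 LanthaScreen Eu binding (tracer displacement) format read by TR-FRET after 60 min at 22 °C. Emission ratio converted to percent of control; IC50 taken where a 4-parameter logistic fit crosses 50 POC.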

Chain of GST-tagged recombinant human TYRO3 kinase domain (Q06418 518-790): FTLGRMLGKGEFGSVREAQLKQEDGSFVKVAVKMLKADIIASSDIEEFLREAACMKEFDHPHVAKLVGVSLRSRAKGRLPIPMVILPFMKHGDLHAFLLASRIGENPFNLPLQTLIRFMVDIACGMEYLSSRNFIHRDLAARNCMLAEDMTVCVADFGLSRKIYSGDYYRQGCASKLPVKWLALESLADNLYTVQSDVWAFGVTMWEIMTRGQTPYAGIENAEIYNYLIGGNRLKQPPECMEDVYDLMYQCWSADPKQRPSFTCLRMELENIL
Chain of His-tagged recombinant human AXL cytoplasmic domain (P30530 473-894): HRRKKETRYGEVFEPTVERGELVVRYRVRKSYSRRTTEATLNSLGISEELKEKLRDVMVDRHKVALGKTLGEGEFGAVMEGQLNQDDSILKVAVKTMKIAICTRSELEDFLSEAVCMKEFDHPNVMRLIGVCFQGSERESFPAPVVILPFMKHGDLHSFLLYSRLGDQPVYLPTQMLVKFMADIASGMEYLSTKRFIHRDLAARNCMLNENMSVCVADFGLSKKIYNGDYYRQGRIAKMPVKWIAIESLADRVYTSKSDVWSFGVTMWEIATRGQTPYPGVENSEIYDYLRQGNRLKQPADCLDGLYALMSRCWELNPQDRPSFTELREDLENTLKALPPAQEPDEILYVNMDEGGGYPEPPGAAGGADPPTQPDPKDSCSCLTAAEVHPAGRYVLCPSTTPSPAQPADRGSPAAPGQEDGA
Chain of His-tagged recombinant human MER cytoplasmic domain (Q12866 527-999): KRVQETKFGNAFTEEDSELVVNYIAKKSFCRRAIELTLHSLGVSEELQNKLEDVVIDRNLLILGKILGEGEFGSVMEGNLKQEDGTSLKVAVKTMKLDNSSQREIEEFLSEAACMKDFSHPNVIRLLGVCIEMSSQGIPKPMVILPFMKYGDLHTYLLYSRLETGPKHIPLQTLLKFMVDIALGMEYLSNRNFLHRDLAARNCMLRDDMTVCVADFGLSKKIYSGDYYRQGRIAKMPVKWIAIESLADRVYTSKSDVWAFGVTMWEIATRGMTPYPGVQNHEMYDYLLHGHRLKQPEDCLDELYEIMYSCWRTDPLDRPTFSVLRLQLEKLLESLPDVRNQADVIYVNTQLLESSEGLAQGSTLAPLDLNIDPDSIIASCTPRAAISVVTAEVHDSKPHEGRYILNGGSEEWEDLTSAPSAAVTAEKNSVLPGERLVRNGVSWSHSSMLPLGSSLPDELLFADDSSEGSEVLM

SMILES: CCNc1cc2c(cn1)c(-c1cnn(C[C@@H](O)CO)c1)nn2[C@H]1CC[C@@H](Oc2cc(Cl)ccn2)CC1 [Example 246, (R)-3-(4-(1-((1s,4S)-4-((4-chloropyridin-2-yl)oxy)cyclohexyl)-6-(ethylamino)-1H-pyrazolo[4,3-c]pyridin-3-yl)-1H-pyrazol-1-yl)propane-1,2-diol]
- IC50 [1]: < 10 nM
- IC50 [2]: < 10 nM
- IC50 [3]: 10 to 100 nM

SMILES: CNc1cc2c(cn1)c(N1CCNCC1)nn2[C@H]1CC[C@@H](Oc2nccc(C(F)(F)F)c2F)CC1 [Example 495, 1-((1s,4s)-4-((3-fluoro-4-(trifluoromethyl)pyridin-2-yl)oxy)cyclohexyl)-N-methyl-3-(piperazin-1-yl)-1H-pyrazolo[4,3-c]pyridin-6-amine]
- IC50 [1]: < 10 nM
- IC50 [2]: < 10 nM
- IC50 [3]: < 10 nM

SMILES: CCNc1cc2c(cn1)c(-c1cnn(C)c1)nn2[C@H]1CC[C@@H](Oc2cn(C)nc2C(F)(F)F)CC1 [Example 279, N-ethyl-3-(1-methyl-1H-pyrazol-4-yl)-1-((1s,4s)-4-((1-methyl-3-(trifluoromethyl)-1H-pyrazol-4-yl)oxy)cyclohexyl)-1H-pyrazolo[4,3-c]pyridin-6-amine]
- IC50 [1]: < 10 nM
- IC50 [2]: < 10 nM
- IC50 [3]: < 10 nM

SMILES: CCNc1cc2c(cn1)c(-c1cnn(C(CO)CO)c1)nn2[C@H]1CC[C@@H](Oc2cccc(F)c2F)CC1 [Example 415, 2-(4-(1-((1s,4s)-4-(2,3-difluorophenoxy)cyclohexyl)-6-(ethylamino)-1H-pyrazolo[4,3-c]pyridin-3-yl)-1H-pyrazol-1-yl)propane-1,3-diol]
- IC50 [1]: < 10 nM
- IC50 [2]: < 10 nM
- IC50 [3]: < 10 nM

SMILES: CCNc1cc2c(cn1)c(C1CCN(C(=O)C(C)C)CC1)nn2[C@H]1CC[C@@H](Oc2nccc(C(F)(F)F)c2F)CC1 [Example 329, 1-(4-(6-(ethylamino)-1-((1s,4s)-4-((3-fluoro-4-(trifluoromethyl)pyridin-2-yl)oxy)cyclohexyl)-1H-pyrazolo[4,3-c]pyridin-3-yl)piperidin-1-yl)-2-methylpropan-1-one]
- IC50 [1]: < 10 nM
- IC50 [2]: < 10 nM
- IC50 [3]: 10 to 100 nM

SMILES: CCNc1cc2c(cn1)c(-c1cnn(C[C@@H](O)CO)c1)nn2[C@H]1CC[C@@H](Oc2cccc(Cl)c2F)CC1 [Example 434, (R)-3-(4-(1-((1s,4S)-4-(3-chloro-2-fluorophenoxy)cyclohexyl)-6-(ethylamino)-1H-pyrazolo[4,3-c]pyridin-3-yl)-1H-pyrazol-1-yl)propane-1,2-diol]
- IC50 [1]: < 10 nM
- IC50 [2]: < 10 nM
- IC50 [3]: < 10 nM

SMILES: CCNc1cc2c(cn1)c(-c1cnn(C(C)(C)C#N)c1)nn2[C@H]1CC[C@@H](Oc2cn[nH]c2C(F)(F)F)CC1 [Example 312, 2-(4-(6-(ethylamino)-1-((1s,4s)-4-((5-(trifluoromethyl)-1H-pyrazol-4-yl)oxy)cyclohexyl)-1H-pyrazolo[4,3-c]pyridin-3-yl)-1H-pyrazol-1-yl)-2-methylpropanenitrile]
- IC50 [1]: < 10 nM
- IC50 [2]: < 10 nM
- IC50 [3]: < 10 nM

SMILES: CNc1cc2c(cn1)c(-c1cnn(CC3CCOCC3)c1)nn2[C@H]1CC[C@@H](Oc2nccnc2C)CC1 [Example 215, N-methyl-1-((1s,4s)-4-((3-methylpyrazin-2-yl)oxy)cyclohexyl)-3-(1-((tetrahydro-2H-pyran-4-yl)methyl)-1H-pyrazol-4-yl)-1H-pyrazolo[4,3-c]pyridin-6-amine]
- IC50 [1]: < 10 nM
- IC50 [2]: < 10 nM
- IC50 [3]: 10 to 100 nM

SMILES: CCNc1cc2c(cn1)c(-c1ccc(=O)n(C)c1)nn2[C@H]1CC[C@@H](Oc2nccc(C(F)(F)F)c2F)CC1 [Example 298, 5-(6-(ethylamino)-1-((1s,4s)-4-((3-fluoro-4-(trifluoromethyl)pyridin-2-yl)oxy)cyclohexyl)-1H-pyrazolo[4,3-c]pyridin-3-yl)-1-methylpyridin-2(1H)-one]
- IC50 [1]: < 10 nM
- IC50 [2]: < 10 nM
- IC50 [3]: 10 to 100 nM

SMILES: CNc1cc2c(cn1)c(-c1ccc(C3(N4CCN(C)CC4)CC3)cc1)nn2[C@H]1CC[C@@H](Oc2ccc(=O)n(C)n2)CC1 [Example 53, 2-methyl-6-(((1s,4s)-4-(6-(methylamino)-3-(4-(1-(4-methylpiperazin-1-yl)cyclopropyl)phenyl)-1H-pyrazolo[4,3-c]pyridin-1-yl)cyclohexyl)oxy)pyridazin-3(2H)-one]
- IC50 [1]: < 10 nM
- IC50 [2]: < 10 nM
- IC50 [3]: 100 to 1000 nM

SMILES: CCNc1cc2c(cn1)c(C1=CCN(C)CC1)nn2[C@H]1CC[C@@H](Oc2nccc(C(F)(F)F)c2F)CC1 [Example 255]
- IC50 [1]: < 10 nM
- IC50 [2]: < 10 nM
- IC50 [3]: 10 to 100 nM

SMILES: CCNc1cc2c(cn1)c(-c1cnn(C[C@@H](O)C(C)(C)O)c1)nn2[C@H]1CC[C@@H](Oc2ccccc2F)CC1 [Example 442, (R)-1-(4-(6-(ethylamino)-1-((1s,4S)-4-(2-fluorophenoxy)cyclohexyl)-1H-pyrazolo[4,3-c]pyridin-3-yl)-1H-pyrazol-1-yl)-3-methylbutane-2,3-diol]
- IC50 [1]: < 10 nM
- IC50 [2]: < 10 nM
- IC50 [3]: 10 to 100 nM

SMILES: CCNc1cc2c(cn1)c(-c1ccc3c(c1)CNS3(=O)=O)nn2[C@H]1CC[C@@H](Oc2cn(C)nc2C(F)(F)F)CC1 [Example 221, 5-(6-(ethylamino)-1-((1s,4s)-4-((1-methyl-3-(trifluoromethyl)-1H-pyrazol-4-yl)oxy)cyclohexyl)-1H-pyrazolo[4,3-c]pyridin-3-yl)-2,3-dihydrobenzo[d]isothiazole 1,1-dioxide]
- IC50 [1]: < 10 nM
- IC50 [2]: < 10 nM
- IC50 [3]: < 10 nM

SMILES: CCNc1cc2c(cn1)c(N1CCC(N(C)C)CC1)nn2[C@H]1CC[C@@H](Oc2nccc(C(F)(F)F)c2F)CC1 [Example 345, 3-(4-(dimethylamino)piperidin-1-yl)-N-ethyl-1-((1s,4s)-4-((3-fluoro-4-(trifluoromethyl)pyridin-2-yl)oxy)cyclohexyl)-1H-pyrazolo[4,3-c]pyridin-6-amine]
- IC50 [1]: < 10 nM
- IC50 [2]: < 10 nM
- IC50 [3]: 10 to 100 nM

SMILES: CCNc1cc2c(cn1)c(-c1cnn(CCN3CCN(C)CC3)c1)nn2[C@H]1CC[C@@H](Oc2nccc(C(F)(F)F)c2F)CC1 [Example 496]
- IC50 [1]: < 10 nM
- IC50 [2]: < 10 nM
- IC50 [3]: < 10 nM

SMILES: CCNc1cc2c(cn1)c(-c1cnn(C)c1)nn2[C@H]1CC[C@@H](Oc2nccc(C)c2F)CC1 [Example 346, N-ethyl-1-((1s,4s)-4-((3-fluoro-4-methylpyridin-2-yl)oxy)cyclohexyl)-3-(1-methyl-1H-pyrazol-4-yl)-1H-pyrazolo[4,3-c]pyridin-6-amine]
- IC50 [1]: < 10 nM
- IC50 [2]: < 10 nM
- IC50 [3]: 10 to 100 nM

SMILES: CCNc1cc2c(cn1)c(-c1cnn(CC(C)(C)O)c1)nn2[C@H]1CC[C@@H](Oc2nccc(C(F)(F)F)c2F)CC1 [Example 300, 1-(4-(6-(ethylamino)-1-((1s,4s)-4-((3-fluoro-4-(trifluoromethyl)pyridin-2-yl)oxy)cyclohexyl)-1H-pyrazolo[4,3-c]pyridin-3-yl)-1H-pyrazol-1-yl)-2-methylpropan-2-ol]
- IC50 [1]: < 10 nM
- IC50 [2]: < 10 nM
- IC50 [3]: 10 to 100 nM

SMILES: CCNc1cc2c(cn1)c(-c1cnn(C[C@H](O)[C@H](C)O)c1)nn2[C@H]1CC[C@@H](Oc2nccc(C(F)(F)F)c2F)CC1 [Example 239, (2S,3S)-1-(4-(6-(ethylamino)-1-((1s,4R)-4-((3-fluoro-4-(trifluoromethyl)pyridin-2-yl)oxy)cyclohexyl)-1H-pyrazolo[4,3-c]pyridin-3-yl)-1H-pyrazol-1-yl)butane-2,3-diol]
- IC50 [1]: < 10 nM
- IC50 [2]: < 10 nM
- IC50 [3]: < 10 nM

Reference: patent US11247990B1, “Bicyclic fused pyridine compounds as inhibitors of TAM kinases” (ARRAY BIOPHARMA INC., priority 2017, dated 2022)
